The values below come from patent publication US8633183B2 (priority 2010, dated 2014).

Structures are written as SMILES.

For this assay, the target named is PI3Kalpha (Homo sapiens (Human), UniProt P42336). Conditions: read-out: IC50 PI3K.
PI3Kalpha, sequence (P42336 whole entry, looked up): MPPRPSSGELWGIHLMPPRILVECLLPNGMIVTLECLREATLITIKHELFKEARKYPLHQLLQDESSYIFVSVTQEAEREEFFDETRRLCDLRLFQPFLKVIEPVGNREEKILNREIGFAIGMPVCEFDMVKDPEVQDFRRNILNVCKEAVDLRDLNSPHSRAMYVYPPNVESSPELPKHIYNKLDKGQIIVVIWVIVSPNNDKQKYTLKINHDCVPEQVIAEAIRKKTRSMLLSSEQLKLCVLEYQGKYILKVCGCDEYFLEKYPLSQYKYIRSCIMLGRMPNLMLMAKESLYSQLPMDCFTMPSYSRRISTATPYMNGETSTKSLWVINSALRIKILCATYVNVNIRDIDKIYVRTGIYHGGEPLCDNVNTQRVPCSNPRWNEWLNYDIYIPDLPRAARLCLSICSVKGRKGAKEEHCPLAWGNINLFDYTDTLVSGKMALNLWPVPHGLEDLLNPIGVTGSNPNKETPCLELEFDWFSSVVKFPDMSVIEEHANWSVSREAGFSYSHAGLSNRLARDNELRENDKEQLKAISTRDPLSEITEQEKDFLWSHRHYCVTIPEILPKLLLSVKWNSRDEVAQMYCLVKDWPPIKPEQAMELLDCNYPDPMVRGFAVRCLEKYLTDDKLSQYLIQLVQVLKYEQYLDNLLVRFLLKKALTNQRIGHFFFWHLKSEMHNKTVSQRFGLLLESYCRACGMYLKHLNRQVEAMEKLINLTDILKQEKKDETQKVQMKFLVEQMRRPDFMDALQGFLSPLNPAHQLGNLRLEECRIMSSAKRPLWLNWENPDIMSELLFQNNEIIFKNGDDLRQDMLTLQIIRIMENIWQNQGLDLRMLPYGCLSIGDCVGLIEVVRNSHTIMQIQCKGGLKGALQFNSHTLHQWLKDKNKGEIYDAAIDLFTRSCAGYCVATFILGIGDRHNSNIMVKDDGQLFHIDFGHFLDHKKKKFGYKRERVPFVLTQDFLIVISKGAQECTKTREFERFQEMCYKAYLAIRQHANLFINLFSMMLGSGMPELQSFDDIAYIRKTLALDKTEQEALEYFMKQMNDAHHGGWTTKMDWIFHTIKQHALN
Protocol: Plot the concentration of each compound versus the emission ratio. […] Determination of IC50 values can be obtained by curve fitting (sigmoidal dose response, variable slope) using Prism software from GraphPad).
Method Type: Filter-Binding-Assay
Compounds are serially diluted in assay buffer+6% DMSO and 10 μl of each dilution is added per well of a 96-well plate (compounds are tested in duplicates) and mixed with 30 μl of the lipid vesicles containing PDGFR-Peptide (0.5 μM final) and PI3K alpha (25 ng/well final). The mixture is then incubated for 20 minutes at room temperature. Subsequently, 20 μl of assay buffer containing 3 μM cold ATP and 0.5 μCi/20 μl 33P-ATP are added. The plates are then incubated at room temperature for 120 minutes (shaking with 300 rpm). The reaction mix is transferred onto filter plates using “filtermate harvester” from Packard: filter plates are rinsed with PBS, then the reaction mix is filtered onto the filter plate, washed 5 times with PBS and are allowed to dry for 30-60 minutes at 50° C.
As positive control serve wells containing vehicle controls (1% DMSO in assay buffer), showing non-inhibited kinase activity (high values). Wells containing assay buffer instead of enzyme can serve as control for background activity (low values).
Calculate IC50 values using the Smiley program (based on GrapPad Prism)
For the compound `Cc1ncnc(-c2ccc(C(=O)N3CCN(CCO)CC3)cc2)c1C#Cc1ccc(N)nc1` [Example D-194], the IC50 is 106 nM.
As for `CCc1ncnc(-c2cc(F)c(C(=O)N3CCN(CCC#N)CC3)c(F)c2)c1C#Cc1ccc(NC)nc1` [Example E-221], the IC50 is 213 nM.
Turning to `CCc1ncnc(-c2ccc(C(=O)N3CCC(N4CCOCC4)CC3)c(F)c2)c1C#Cc1ccc(N)nc1` [Example D-63], the half-maximal inhibitory concentration (IC50) worked out at 234 nM.
Then `CCc1ncnc(-c2ccc(C(=O)N3CCN(C)CC3)c(F)c2)c1C#Cc1ccc(NC)nc1` [Example E-182], with 247 nM; and `CCc1ncnc(-c2ccc(C(=O)N3CCOCC3)c(Cl)c2)c1C#Cc1ccc(N)nc1` [Example E-72], with 66.5 nM; and `CCc1ncnc(-c2ccc(C(=O)N3CC(O)CO3)c(C)c2)c1C#Cc1ccc(N)nc1` (stereo not shown) [Example E-93], with 107 nM.
Then `CCc1ncnc(-c2ccc(C(=O)N3CCN4CCCCC4C3)c(F)c2)c1C#Cc1ccc(N)nc1C` [Example D-18], with 481 nM.
Turning to `CCc1ncnc(-c2ccc(C(=O)N3CC[C@@H](N(C)C)C3)c(F)c2)c1C#Cc1ccc(N)nc1` [Example D-236], the half-maximal inhibitory concentration (IC50) worked out at 269 nM.
The figure for `CCc1ncnc(-c2ccc(C(=O)N(C)CCN3CCCC3=O)c(F)c2)c1C#Cc1ccc(N)nc1` [Example D-119] is 55 nM; for `CCc1ncnc(-c2ccc(C(=O)N(C)C3CCS(=O)(=O)C3)c(Cl)c2)c1C#Cc1ccc(N)nc1` (stereo not shown) [Example E-80] it is 48.2 nM.
Turning to `CCc1ncnc(-c2ccc(C(=O)N3CCN(C4CCCC4)CC3)c(OC)c2)c1C#Cc1ccc(N)nc1` [Example E-68], the IC50 stood at 412 nM.
As to `CCCCN1CCN(C(=O)c2ccc(-c3ncnc(C)c3C#Cc3ccc(N)nc3)cc2)CC1` [Example D-190], the half-maximal inhibitory concentration (IC50) came out at 153 nM.
Then `CCc1ncnc(-c2cc(F)c(C(=O)N3CCC(C(C)(C)O)CC3)c(F)c2)c1C#Cc1ccc(NC)nc1` [Example E-214], with 600 nM; and `CCc1ncnc(-c2ccc(C(=O)N3CCN(Cc4ncon4)CC3)c(Cl)c2)c1C#Cc1ccc(N)nc1` [Example E-342], with 137 nM.
For the compound `CCc1ncnc(-c2ccc(C(=O)N3CCN(C(C)COC)CC3)c(F)c2)c1C#Cc1ccc(N)nc1` (stereo not shown) [Example E-291], the 50% inhibitory concentration (IC50) was determined as 220 nM.
Then `CCc1ncnc(-c2ccc(C(=O)N3CCN(CC(F)F)CC3)c(Cl)c2)c1C#Cc1ccc(N)nc1` [Example D-41], with 177 nM; and `CCc1ncnc(-c2ccc(C(=O)N3CCN(c4ccncc4)CC3)c(C)c2)c1C#Cc1ccc(N)nc1` [Example E-131], with 158 nM; and `CCc1ncnc(-c2ccc(C(=O)NC3CC(N4CCC(N5CCCC5)CC4)C3)c(F)c2)c1C#Cc1ccc(N)nc1` [Example D-208], with 308 nM.
Consider `CCc1ncnc(-c2ccc(S(C)(=O)=O)cc2)c1C#Cc1ccc(C)nc1` [Example C-17], for which the concentration for half-maximal inhibition (IC50) came out at 99 nM.
On to `CCc1ncnc(-c2ccc(C(=O)NC3CC(N4CCN(C)CC4)C3)c(F)c2)c1C#Cc1ccc(N)nc1` [Example D-198], for which the IC50 was found to be 203 nM.
`CCc1ncnc(-c2ccc(C(=O)N3CCN(Cc4ccccc4)CC3)c(OC)c2)c1C#Cc1ccc(N)nc1` [Example E-69]: the 50% inhibitory concentration (IC50) was determined as 415 nM.
Then `CCc1ncnc(-c2ccc(C(=O)N3CCN4CCCC[C@H]4C3)c(F)c2)c1C#Cc1ccc(N)nc1` [Example E-144], with 169 nM.
Then `CCc1ncnc(-c2ccc(C(=O)NCC3(C)COC3)c(C)c2)c1C#Cc1ccc(N)nc1` [Example E-134], with 44.9 nM; and `CCc1ncnc(-c2ccc(C(=O)N3CCN(C4CCOCC4)CC3)c(Cl)c2)c1C#Cc1ccc(NC)nc1` [Example E-186], with 325 nM.
As to `CCc1ncnc(-c2ccc(C(=O)N3CCC(C(C)(C)O)CC3)c(C)c2)c1C#Cc1ccc(N)nc1` [Example E-87], the 50% inhibitory concentration (IC50) stood at 78.8 nM.
As to `CCc1ncnc(-c2ccc(C(=O)N3CCN(CC4CCCCC4)CC3)c(OC)c2)c1C#Cc1ccc(N)nc1` [Example E-67], the IC50 is 3050 nM.
As to `CCc1ncnc(-c2ccc(C(=O)N3CCN(CC4CCCCC4)CC3)c(C)c2)c1C#Cc1ccc(N)nc1` [Example E-113], the IC50 is 414 nM.
Then `CCc1ncnc(-c2ccc(C(=O)N3CCC(N4CCN(C5CCN(C)CC5)CC4)CC3)c(F)c2)c1C#Cc1ccc(N)nc1` [Example D-67], with 244 nM; and `Cc1ncnc(-c2cnc3ccccc3c2)c1C#Cc1ccc(N)nc1` [Example C-22], with 30 nM; and `CCc1ncnc(-c2cc(F)c(C(=O)N3CCn4c(COC)nnc4C3)c(F)c2)c1C#Cc1ccc(N)nc1` [Example E-170], with 96.5 nM.
Then `CCc1ncnc(-c2cc(F)c(C(=O)N3CCN(CC)CC3)c(F)c2)c1C#Cc1ccc(NC)nc1` [Example E-211], with 472 nM.
On to `CCc1ncnc(-c2ccc(C(=O)N3CCN(CC)CC3)c(Cl)c2)c1C#Cc1ccc(N)nc1` [Example D-45], for which the IC50 is 186 nM.
Then `CCc1ncnc(-c2cc(F)c(C(=O)N3CCC4(CC3)CNC4)c(F)c2)c1C#Cc1ccc(N)nc1` [Example E-161], with 925 nM.
Then `CCc1ncnc(-c2cc(Cl)c(C(=O)N3CCC(C(C)(C)O)CC3)c(Cl)c2)c1C#Cc1ccc(N)nc1` [Example E-201], with 98.1 nM; and `CCc1ncnc(-c2ccc(C(=O)N3CCN(CCOC)CC3)c(OC)c2)c1C#Cc1ccc(N)nc1` [Example D-52], with 134 nM.
Then `CCc1ncnc(-c2cc(F)c(C(=O)N3CCN(CCC#N)CC3)c(Cl)c2)c1C#Cc1ccc(N)nc1` [Example E-243], with 110 nM; and `CCc1ncnc(-c2ccc(C(=O)N3CCCOCC3)c(C)c2)c1C#Cc1ccc(N)nc1` [Example E-133], with 77.8 nM; and `Cc1ncnc(-c2ccc(C(=O)N3CCCCO3)c(F)c2)c1C#Cc1ccc(N)nc1` [Example D-227], with 47 nM.
Consider `CCc1ncnc(-c2cc(Cl)c(C(=O)N3CCN(C)CC3)c(Cl)c2)c1C#Cc1ccc(N)nc1` [Example E-197], for which the IC50 was found to be 123 nM.
The figure for `CCc1ncnc(-c2cc(F)c(C(=O)N3CCC4(CC3)CNC4)c(Cl)c2)c1C#Cc1ccc(N)nc1` [Example E-162] is 540 nM; for `CCOC(=O)N1CCN(C(=O)c2ccc(-c3ncnc(CC)c3C#Cc3ccc(N)nc3)cc2F)CC1` [Example D-116] it is 129 nM; for `CCc1ncnc(-c2ccc(C(=O)N(C)CCCN(C)C)c(F)c2)c1C#Cc1ccc(N)nc1` [Example D-9] it is 591 nM.
The figure for `CCc1ncnc(-c2cc(F)c(C(=O)N3CCN(C4CCCC4O)CC3)c(F)c2)c1C#Cc1ccc(N)nc1` (stereo not shown) [Example E-301] is 106 nM; for `CCc1ncnc(-c2ccc(C(=O)NC3CCN(C4CCN(C)CC4)C3)c(F)c2)c1C#Cc1ccc(N)nc1` [Example D-210] it is 370 nM; for `CCc1ncnc(-c2ccc(C(=O)N3CCN(CC(F)F)CC3)c(Cl)c2)c1C#Cc1ccc(NC)nc1` [Example E-187] it is 162 nM.
The figure for `CCc1ncnc(-c2ccc(C(=O)N3CC[C@H](O)C3)c(Cl)c2)c1C#Cc1ccc(N)nc1` [Example E-27] is 58.3 nM; for `CCc1ncnc(-c2ccc(C(=O)N3CCNCC3)c(C)c2)c1C#Cc1ccc(N)nc1` [Example E-127] it is 158 nM.
With `CCc1ncnc(-c2ccc(C(=O)N3CCN(c4ccccc4)CC3)c(Cl)c2)c1C#Cc1ccc(N)nc1` [Example D-39], the concentration for half-maximal inhibition (IC50) came out at 89 nM.
On to `CCc1ncnc(-c2cc(F)c(C(=O)N3CCn4cnnc4C3)c(Cl)c2)c1C#Cc1ccc(N)nc1` [Example E-156], for which the IC50 was 18.3 nM.
Then `CCc1ncnc(-c2ccc(C(=O)NCC3(C)COC3)c(Cl)c2)c1C#Cc1ccc(N)nc1` [Example E-41], with 66 nM.
Then `CCc1ncnc(-c2ccc(C(=O)N3CCN(C4CCS(=O)(=O)C4)CC3)c(F)c2)c1C#Cc1ccc(N)nc1` [Example D-86], with 95 nM; and `CCc1ncnc(-c2ccc(C(=O)N3CCCCO3)cc2)c1C#Cc1ccc(N)nc1` [Example D-223], with 77 nM.
Regarding `Cc1ncnc(-c2ccc(N3CCCCC3)nc2)c1C#Cc1ccc(N)nc1` [Example C-25], the IC50 stood at 64 nM.
Then `CCc1ncnc(-c2ccc(C(=O)N3CCN4CCCCC4C3)c(OC)c2)c1C#Cc1ccc(N)nc1` (stereo not shown) [Example E-57], with 280 nM; and `CCc1ncnc(-c2ccc(C(=O)N3CCN(CC(F)F)CC3)c(F)c2)c1C#Cc1ccc(N)nc1C` [Example D-12], with 163 nM; and `CCc1ncnc(-c2ccc(C(=O)N3CCN(CC(F)(F)F)CC3)c(F)c2)c1C#Cc1ccc(N)nc1` [Example D-69], with 133 nM.
With `CCc1ncnc(-c2ccc(C(=O)N3CCC(CN(C)C)CC3)c(F)c2)c1C#Cc1ccc(N)nc1C` [Example E-281], the half-maximal inhibitory concentration (IC50) was 679 nM.
Then `CCc1ncnc(-c2cc(F)c(C(=O)N3CCN(CC(C)O)CC3)c(Cl)c2)c1C#Cc1ccc(N)nc1` (stereo not shown) [Example E-309], with 239 nM; and `CCc1ncnc(-c2cc(F)c(C(=O)N3CCN(C)C(=O)C3)c(F)c2)c1C#Cc1ccc(NC)nc1` [Example E-208], with 176 nM; and `Cc1ncnc(-c2cccc(C(=O)N(C)C)c2)c1C#Cc1ccc(N)nc1` [Example C-10], with 401 nM.
The figure for `CCc1ncnc(-c2ccc(C(=O)N(C)C)cc2)c1C#Cc1ccc(C)nc1` [Example C-18] is 137 nM; for `CCc1ncnc(-c2ccc(C(=O)N(C)CCN3CCCC3=O)c(Cl)c2)c1C#Cc1ccc(N)nc1` [Example E-85] it is 56.4 nM.
The figure for `CCc1ncnc(-c2cc(F)c(C(=O)N3CCC(CN)CC3)c(Cl)c2)c1C#Cc1ccc(N)nc1` [Example E-285] is 647 nM.
As for `CCc1ncnc(-c2ccc(C(=O)N3CCNCC3)c(Cl)c2)c1C#Cc1ccc(N)nc1` [Example E-34], the IC50 came to 164 nM.
Take `CCc1ncnc(-c2ccc(C(=O)N3CCN(CC4CCCN(C)C4)CC3)c(F)c2)c1C#Cc1ccc(N)nc1` [Example D-114]: the half-inhibitory concentration (IC50) came out at 188 nM.
The figure for `CCc1ncnc(-c2ccc(C(=O)N3CC[C@@H](N(C)C)C3)c(Cl)c2)c1C#Cc1ccc(NC)nc1` [Example E-188] is 356 nM; for `CCNc1ccc(C#Cc2c(CC)ncnc2-c2ccc(C(=O)N3CCn4c(C)cnc4C3)c(F)c2)cn1` [Example E-262] it is 134 nM.
